ChEMBL document CHEMBL4507291 (2021)

What was measured:
[1] = target: T1, Ephrin type-A receptor 3 (Homo sapiens) (UniProt P29320); assay: EPHA3 Kinase screen; settings: Compound concentration 1.0 uM
T1 sequence (whole entry): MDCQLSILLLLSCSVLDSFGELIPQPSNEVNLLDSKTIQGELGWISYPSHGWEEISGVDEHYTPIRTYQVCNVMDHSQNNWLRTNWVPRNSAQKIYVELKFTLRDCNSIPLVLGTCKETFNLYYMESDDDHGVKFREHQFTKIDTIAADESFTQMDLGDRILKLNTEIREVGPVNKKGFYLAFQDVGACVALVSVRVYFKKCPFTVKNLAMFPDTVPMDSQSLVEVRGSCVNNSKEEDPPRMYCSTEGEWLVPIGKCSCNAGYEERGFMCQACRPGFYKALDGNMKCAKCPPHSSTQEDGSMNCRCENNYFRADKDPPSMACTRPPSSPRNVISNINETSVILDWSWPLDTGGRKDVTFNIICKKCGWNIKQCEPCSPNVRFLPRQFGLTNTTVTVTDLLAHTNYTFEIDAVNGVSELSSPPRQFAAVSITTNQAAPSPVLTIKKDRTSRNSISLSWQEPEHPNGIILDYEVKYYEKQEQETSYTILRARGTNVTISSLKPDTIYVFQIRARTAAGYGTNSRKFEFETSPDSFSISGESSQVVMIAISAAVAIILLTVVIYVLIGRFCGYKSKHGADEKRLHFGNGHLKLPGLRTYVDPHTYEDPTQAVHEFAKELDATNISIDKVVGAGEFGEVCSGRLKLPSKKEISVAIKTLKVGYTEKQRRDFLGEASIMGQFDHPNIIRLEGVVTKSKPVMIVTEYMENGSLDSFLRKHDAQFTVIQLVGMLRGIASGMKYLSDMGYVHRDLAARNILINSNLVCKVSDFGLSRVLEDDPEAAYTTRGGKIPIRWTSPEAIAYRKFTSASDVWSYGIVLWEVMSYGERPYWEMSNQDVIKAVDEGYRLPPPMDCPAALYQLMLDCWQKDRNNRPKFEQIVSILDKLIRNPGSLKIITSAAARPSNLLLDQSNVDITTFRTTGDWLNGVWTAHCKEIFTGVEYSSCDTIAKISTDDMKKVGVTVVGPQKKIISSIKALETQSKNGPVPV

[2] = target: Prostaglandin E2 receptor EP1 subtype (Homo sapiens) (UniProt P34995); assay: Prostanoid EP1 Eurofins-Panlabs radioligand binding assay; set-up: ligand concentration 1 nM; settings: Compound concentration 10.0 uM
Prostaglandin E2 receptor EP1 subtype (Homo sapiens), sequence (P34995 whole entry): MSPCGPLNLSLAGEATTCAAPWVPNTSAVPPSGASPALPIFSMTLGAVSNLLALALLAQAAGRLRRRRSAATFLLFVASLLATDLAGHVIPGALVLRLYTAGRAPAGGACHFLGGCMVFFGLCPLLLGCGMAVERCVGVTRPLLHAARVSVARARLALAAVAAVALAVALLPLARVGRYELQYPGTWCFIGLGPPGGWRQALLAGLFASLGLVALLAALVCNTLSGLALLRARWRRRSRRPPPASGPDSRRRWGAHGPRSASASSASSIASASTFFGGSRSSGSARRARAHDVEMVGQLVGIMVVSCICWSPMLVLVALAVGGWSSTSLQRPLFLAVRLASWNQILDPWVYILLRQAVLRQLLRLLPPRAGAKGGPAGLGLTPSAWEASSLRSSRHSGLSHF

[3] = target: Hepatocyte growth factor receptor (Homo sapiens) (UniProt P08581); assay: MET (cMet) Kinase screen; settings: Compound concentration 1.0 uM
[4] = target: Serine/threonine-protein kinase 25 (Homo sapiens) (UniProt O00506); assay: STK25 (YSK1) Kinase screen; settings: Compound concentration 1.0 uM
Serine/threonine-protein kinase 25 (Homo sapiens), sequence (O00506 whole entry, looked up): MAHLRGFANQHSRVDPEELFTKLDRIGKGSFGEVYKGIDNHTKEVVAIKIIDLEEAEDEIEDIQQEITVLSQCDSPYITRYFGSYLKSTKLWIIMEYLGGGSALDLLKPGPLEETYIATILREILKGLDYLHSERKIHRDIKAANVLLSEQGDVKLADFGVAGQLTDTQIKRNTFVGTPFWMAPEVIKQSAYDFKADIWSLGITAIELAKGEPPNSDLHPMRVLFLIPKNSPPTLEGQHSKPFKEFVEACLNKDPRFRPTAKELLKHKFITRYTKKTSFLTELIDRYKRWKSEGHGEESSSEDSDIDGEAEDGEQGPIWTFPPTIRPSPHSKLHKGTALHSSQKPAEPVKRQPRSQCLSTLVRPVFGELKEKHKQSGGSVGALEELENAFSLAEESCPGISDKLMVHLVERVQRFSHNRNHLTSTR

[5] = target: Receptor-interacting serine/threonine-protein kinase 2 (Homo sapiens) (UniProt O43353); assay: RIPK2 Kinase screen; settings: Compound concentration 1.0 uM
[6] = target: Histamine H4 receptor (Homo sapiens) (UniProt Q9H3N8); assay: Histamine H4 Eurofins-Panlabs radioligand binding assay; settings: Compound concentration 10.0 uM
Histamine H4 receptor (Homo sapiens), sequence (Q9H3N8 whole entry): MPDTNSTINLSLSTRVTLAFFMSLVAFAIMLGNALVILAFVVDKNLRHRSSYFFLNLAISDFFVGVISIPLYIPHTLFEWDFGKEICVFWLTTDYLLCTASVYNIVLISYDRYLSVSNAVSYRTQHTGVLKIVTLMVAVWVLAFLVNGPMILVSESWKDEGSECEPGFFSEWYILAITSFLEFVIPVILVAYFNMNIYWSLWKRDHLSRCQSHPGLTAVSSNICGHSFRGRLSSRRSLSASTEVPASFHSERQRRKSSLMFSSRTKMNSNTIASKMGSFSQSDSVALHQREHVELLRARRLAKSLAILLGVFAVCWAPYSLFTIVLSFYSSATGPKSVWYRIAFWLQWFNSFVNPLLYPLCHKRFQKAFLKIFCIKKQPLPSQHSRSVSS

[7] = target: T2, Alpha-1D adrenergic receptor (Homo sapiens) (UniProt P25100); assay: Inhibition of Adrenergic alpha1D at 10 µM in the Eurofins-Panlabs radioligand binding assay (Eurofins_assay_203400); settings: Compound concentration 10.0 uM
T2 sequence (whole entry): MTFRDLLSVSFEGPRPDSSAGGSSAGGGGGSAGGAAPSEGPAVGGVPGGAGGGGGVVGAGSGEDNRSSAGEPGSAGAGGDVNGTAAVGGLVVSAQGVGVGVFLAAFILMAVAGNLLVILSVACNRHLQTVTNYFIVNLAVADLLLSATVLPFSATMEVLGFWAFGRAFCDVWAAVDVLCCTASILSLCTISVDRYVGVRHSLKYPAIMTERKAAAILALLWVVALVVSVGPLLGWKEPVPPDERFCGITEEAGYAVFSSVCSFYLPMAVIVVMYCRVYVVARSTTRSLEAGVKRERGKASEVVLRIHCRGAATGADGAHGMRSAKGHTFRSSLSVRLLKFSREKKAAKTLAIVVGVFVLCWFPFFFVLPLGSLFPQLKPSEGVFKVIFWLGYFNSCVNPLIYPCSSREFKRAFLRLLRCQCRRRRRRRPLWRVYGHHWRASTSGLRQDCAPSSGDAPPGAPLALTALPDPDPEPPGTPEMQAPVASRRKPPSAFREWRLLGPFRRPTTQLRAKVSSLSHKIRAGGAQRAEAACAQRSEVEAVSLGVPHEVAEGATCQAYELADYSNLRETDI

[8] = target: Casein kinase II subunit alpha' (Homo sapiens) (UniProt P19784); assay: CSNK2A2 (CK2 alpha 2) Kinase screen; settings: Compound concentration 1.0 uM
Casein kinase II subunit alpha' (Homo sapiens), sequence (P19784 whole entry, looked up): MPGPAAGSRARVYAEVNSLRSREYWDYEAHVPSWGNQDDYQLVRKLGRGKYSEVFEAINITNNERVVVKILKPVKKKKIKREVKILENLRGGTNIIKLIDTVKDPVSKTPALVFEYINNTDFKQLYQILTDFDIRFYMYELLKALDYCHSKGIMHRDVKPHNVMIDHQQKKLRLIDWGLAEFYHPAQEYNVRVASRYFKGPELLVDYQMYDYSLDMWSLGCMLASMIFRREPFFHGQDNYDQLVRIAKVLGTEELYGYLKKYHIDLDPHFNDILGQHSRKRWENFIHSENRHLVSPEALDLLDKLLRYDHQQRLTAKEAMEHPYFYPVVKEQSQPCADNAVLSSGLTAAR

[9] = target: Type-1 angiotensin II receptor (Homo sapiens) (UniProt P30556); settings: Compound concentration 10.0 uM
Type-1 angiotensin II receptor (Homo sapiens), sequence (P30556 whole entry): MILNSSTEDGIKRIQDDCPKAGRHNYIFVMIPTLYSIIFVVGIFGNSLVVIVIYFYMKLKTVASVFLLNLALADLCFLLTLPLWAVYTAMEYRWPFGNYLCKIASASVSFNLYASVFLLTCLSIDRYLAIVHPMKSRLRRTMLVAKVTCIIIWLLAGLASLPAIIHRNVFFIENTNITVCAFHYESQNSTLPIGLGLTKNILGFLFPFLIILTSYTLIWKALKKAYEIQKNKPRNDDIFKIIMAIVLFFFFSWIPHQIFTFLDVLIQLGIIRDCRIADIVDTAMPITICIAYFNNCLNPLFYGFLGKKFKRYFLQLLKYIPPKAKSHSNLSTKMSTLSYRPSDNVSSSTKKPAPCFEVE

[10] = target: Tyrosine-protein kinase Fyn (Homo sapiens) (UniProt P06241); assay: FYN Kinase screen; settings: Compound concentration 1.0 uM
[11] = target: Vascular endothelial growth factor receptor 1 (Homo sapiens) (UniProt P17948); assay: FLT1 (VEGFR1) Kinase screen; settings: Compound concentration 1.0 uM
Vascular endothelial growth factor receptor 1 (Homo sapiens), sequence (P17948 whole entry): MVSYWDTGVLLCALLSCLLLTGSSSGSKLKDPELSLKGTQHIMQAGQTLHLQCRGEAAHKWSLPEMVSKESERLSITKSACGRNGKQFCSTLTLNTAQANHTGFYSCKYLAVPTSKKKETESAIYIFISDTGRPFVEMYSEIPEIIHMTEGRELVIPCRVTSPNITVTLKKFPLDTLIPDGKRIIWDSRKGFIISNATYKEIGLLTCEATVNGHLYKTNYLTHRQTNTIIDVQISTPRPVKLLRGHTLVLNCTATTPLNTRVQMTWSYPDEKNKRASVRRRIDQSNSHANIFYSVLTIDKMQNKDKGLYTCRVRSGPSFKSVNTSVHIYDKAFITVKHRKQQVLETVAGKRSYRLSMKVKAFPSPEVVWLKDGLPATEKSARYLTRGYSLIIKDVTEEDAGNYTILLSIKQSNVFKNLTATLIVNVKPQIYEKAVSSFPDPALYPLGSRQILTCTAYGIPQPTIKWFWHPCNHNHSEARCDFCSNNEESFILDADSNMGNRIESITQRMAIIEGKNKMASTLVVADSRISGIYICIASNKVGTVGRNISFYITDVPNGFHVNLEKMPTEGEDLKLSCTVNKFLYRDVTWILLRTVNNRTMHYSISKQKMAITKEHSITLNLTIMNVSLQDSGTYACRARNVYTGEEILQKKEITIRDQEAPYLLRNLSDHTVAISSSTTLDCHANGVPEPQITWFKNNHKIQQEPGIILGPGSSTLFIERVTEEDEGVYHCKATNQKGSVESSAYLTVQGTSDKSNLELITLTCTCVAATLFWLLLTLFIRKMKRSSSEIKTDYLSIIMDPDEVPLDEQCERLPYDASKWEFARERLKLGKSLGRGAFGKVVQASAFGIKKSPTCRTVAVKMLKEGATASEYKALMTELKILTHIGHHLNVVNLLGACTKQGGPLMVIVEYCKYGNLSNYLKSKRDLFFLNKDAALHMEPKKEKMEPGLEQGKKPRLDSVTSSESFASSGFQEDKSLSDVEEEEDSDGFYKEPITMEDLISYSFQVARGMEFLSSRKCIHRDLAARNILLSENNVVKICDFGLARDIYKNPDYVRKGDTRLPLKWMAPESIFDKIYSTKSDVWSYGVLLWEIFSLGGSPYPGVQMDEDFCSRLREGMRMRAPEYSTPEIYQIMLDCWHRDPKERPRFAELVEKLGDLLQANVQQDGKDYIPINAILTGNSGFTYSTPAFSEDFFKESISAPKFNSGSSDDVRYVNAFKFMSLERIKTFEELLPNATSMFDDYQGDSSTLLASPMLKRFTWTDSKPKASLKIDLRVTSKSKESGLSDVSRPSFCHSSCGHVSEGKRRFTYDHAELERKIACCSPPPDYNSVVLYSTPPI

[12] = target: Gastrin/cholecystokinin type B receptor (Homo sapiens) (UniProt P32239); settings: Compound concentration 10.0 uM
Gastrin/cholecystokinin type B receptor (Homo sapiens), sequence (P32239 whole entry): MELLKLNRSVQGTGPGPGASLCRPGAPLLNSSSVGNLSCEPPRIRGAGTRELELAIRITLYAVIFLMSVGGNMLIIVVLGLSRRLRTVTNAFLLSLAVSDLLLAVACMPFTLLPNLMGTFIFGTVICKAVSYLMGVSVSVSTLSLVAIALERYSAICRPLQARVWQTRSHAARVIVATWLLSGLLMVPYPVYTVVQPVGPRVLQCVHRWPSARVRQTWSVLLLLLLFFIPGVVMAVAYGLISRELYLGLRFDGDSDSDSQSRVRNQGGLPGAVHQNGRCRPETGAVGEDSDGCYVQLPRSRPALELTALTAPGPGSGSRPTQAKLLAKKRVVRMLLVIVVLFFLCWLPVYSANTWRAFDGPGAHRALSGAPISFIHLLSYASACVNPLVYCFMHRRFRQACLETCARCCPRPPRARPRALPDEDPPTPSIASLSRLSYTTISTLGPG

[13] = target: G protein-coupled receptor kinase 4 (Homo sapiens) (UniProt P32298); assay: GRK4 Kinase screen; settings: Compound concentration 1.0 uM
G protein-coupled receptor kinase 4 (Homo sapiens), sequence (P32298 whole entry, looked up): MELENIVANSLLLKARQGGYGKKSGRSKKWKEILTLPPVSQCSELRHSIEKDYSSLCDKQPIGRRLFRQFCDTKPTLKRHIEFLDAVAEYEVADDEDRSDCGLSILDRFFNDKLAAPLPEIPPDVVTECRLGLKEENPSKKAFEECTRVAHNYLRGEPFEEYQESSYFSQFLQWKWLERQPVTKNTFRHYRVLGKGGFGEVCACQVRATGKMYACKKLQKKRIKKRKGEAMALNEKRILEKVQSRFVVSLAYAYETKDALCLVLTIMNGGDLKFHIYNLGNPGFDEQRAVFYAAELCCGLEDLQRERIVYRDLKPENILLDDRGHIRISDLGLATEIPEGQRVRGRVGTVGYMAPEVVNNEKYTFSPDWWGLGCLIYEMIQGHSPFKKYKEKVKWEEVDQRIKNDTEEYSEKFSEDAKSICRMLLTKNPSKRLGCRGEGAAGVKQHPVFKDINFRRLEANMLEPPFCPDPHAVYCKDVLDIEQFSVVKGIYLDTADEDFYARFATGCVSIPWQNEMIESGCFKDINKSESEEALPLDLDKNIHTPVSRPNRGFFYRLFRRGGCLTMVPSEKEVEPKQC

[14] = target: Leukocyte tyrosine kinase receptor (Homo sapiens) (UniProt P29376); assay: LTK (TYK1) Kinase screen; settings: Compound concentration 1.0 uM
[15] = target: Protein kinase C gamma type (Homo sapiens) (UniProt P05129); assay: PRKCG (PKC gamma) Kinase screen; settings: Compound concentration 1.0 uM
[16] = target: T3, Tyrosine-protein kinase ZAP-70 (Homo sapiens) (UniProt P43403); assay: ZAP70 Kinase screen; settings: Compound concentration 1.0 uM
T3 sequence (whole entry): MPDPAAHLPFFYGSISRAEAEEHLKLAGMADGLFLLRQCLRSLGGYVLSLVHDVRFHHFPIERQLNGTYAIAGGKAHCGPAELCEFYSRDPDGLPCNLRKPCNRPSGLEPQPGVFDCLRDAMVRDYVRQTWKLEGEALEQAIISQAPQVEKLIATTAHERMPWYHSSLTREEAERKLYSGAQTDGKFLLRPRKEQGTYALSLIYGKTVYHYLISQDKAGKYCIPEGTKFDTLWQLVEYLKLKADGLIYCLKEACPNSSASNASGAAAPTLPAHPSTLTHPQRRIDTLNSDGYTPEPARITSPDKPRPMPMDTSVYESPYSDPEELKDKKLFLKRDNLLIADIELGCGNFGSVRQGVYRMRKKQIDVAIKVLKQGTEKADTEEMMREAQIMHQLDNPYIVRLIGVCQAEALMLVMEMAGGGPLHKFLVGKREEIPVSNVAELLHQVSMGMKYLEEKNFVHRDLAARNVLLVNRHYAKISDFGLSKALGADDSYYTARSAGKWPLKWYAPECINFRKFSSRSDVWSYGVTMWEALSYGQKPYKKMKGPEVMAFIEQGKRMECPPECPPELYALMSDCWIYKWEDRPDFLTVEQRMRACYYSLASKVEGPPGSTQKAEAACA

Measured: inhibition

C[C@@H]1CN(c2cc(-c3n[nH]c4ccc(OC5(C)CC5)cc34)ncn2)C[C@H](C)O1 [MLi-2]
inactive: [1] -3.28% | [2] 16% | [3] 5.51% | [4] 2.24% | [5] -0.0326% | [6] -4% | [7] 1% | [8] 10.4% | [9] 8% | [10] 11.2% | [11] -1.02% | [12] 15% | [13] 6.02% | [14] 42.4% | [15] 1.24% | [16] 10.2%
